Data as given in US20260174875A1 (Novo Nordisk A/S, priority 2023, published 2026).
Where two headings read alike, the source gives them in different places. Numbered stars: 1 amine (or outer) side, 2 acyl side, 3 side chain; on linkers, the order of the positions; unused ones are H or OH. Square brackets hold non-standard residues; d marks the D form. Side chains are listed from the residue outwards. * marks the point of attachment. C18 diacid = O=C(O)CCCCCCCCCCCCCCCCC(=O)*; C16 diacid = O=C(O)CCCCCCCCCCCCCCC(=O)*; γGlu = O=C(O)[C@H](CCC(=O)[*:2])N[*:1]; AEEA = NCCOCCOCC(=O)O; Aib = CC(C)(N)C(=O)O

Experiments:
[1] = target: T1, human amylin receptor (hAMYR3) (Homo sapiens, UniProt O60896+P30988); assay: Amylin receptor assay, method A (CRE-luciferase reporter, BHK cells); type: cell-based
T1 construct: host or cells: BHK cells (Hollex-1 line expressing hCTR(a) and CRE-Luc), further transfected with human RAMP3
T1 sequence (P30988 25-474): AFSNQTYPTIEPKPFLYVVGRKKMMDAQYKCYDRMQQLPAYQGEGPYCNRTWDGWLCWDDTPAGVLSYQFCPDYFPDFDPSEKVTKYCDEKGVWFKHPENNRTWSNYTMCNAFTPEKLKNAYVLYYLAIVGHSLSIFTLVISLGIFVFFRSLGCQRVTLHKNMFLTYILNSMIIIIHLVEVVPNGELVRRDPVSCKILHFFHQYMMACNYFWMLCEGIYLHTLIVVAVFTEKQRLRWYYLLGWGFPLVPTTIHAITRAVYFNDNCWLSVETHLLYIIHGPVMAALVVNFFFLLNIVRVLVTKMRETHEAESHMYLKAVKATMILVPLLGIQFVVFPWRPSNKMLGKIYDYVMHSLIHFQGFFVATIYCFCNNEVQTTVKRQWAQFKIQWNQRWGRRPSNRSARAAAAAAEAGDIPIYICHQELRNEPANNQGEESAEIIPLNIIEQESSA
T1 sequence (O60896 24-148): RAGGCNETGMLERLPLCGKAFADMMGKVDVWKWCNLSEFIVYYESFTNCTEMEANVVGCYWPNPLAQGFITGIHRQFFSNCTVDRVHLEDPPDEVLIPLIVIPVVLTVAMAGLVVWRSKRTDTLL

[2] = test system: Male Sprague Dawley (SD) rats; assay: Efficacy testing on appetite: acute food intake in ad libitum fed normal weight rats; type: in vivo, rat; conditions: for Food intake (relative to vehicle) Day 1: day 1 [0-24 hours]; for Food intake (relative to vehicle) Day 2: day 2 [24-48 hours]; for Food intake (relative to vehicle) Day 3: day 3 [48-72 hours]
Excerpt: Male Sprague Dawley (SD) rats from Taconic, Denmark were used for the acute food intake experiments, wherein the principles of laboratory animal care were followed.
The rats arrived at least 10-14 days before the start of the experiment to allow acclimatization to experimental settings. During this period, the animals were handled (fixation by restrain in neck skin) at least 2 times. Immediately upon arrival, rats were changed to a reversed light cycle (dark from 11 am-11 pm) and were transferred to an automated food intake measuring system (HM2 system, MBRose; Faaborg, Denmark). […] To enable recording of individual food intake, rats were ID chipped. Three rats were housed in each cage. During the acclimatization period, in which the rats get used to the new light cycle and diet (LF 10% (D12450B), from Research Diets Inc.), the animals had free access to food and water. Since rats are normally active and consume most of their daily calories during the dark period, rats were dosed in the morning right before lights were turned off. Such a set-up results in the lowest data variation and highest test sensitivity. […] In each cage there were animals from three different treatment groups (to eliminate potential cage effects (e.g. cage malfunction) on primary readout: food intake). The rats were dosed once subcutaneously (s.c.) with the peptide of interest according to body weight (10 or 30 nmol/kg) in vehicle (0.5 ml/kg) using a NovoPen® (Novo Nordisk, Bagsvæed, Denmark).
The compounds of the invention were formulated (20 or 60 nmol/ml) in the following vehicle: 8 mM phosphate; 250 mM glycerol; 0.007% polysorbate 20, pH 7.4.
After dosing, the rats were returned to their home cages, where they continued to have ad libitum access to chow and water. The food consumption was recorded individually and continuously by the HM2 system from 0-72 h after test compound administration. Data obtained by the HM-2 system were stored in a HMBase SQL database (Firebird® relational database management system) and were processed by HM2Lab software (MBRose; Faaborg, Denmark) installed in an embedded computer. The feeding system is a highly sensitive system with a load resolution of 0.001 g.

[3] = Chemical stability assessment in formulation (UPLC-UV-MS purity loss at 37° C.); type: physicochemical; conditions: 8 mM phosphate buffer pH 7.4, 1 mg/mL, 2 weeks
Summary of the method: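 Peptides at target 1 mg/mL in 8 mM phosphate buffer, pH adjusted to 7.4, incubated in capped vials at 37° C. and sampled over 2 weeks, frozen until analysis. Purity followed by UPLC-UV-MS with a 0.1% formic acid water/acetonitrile gradient.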

[4] = hAMYR3 Potency, 1% HSA, EC50, method A, in the presence of 1% HSA
[5] = method A, absence of HSA, read-out: hAMYR3 Potency, no HSA, EC50
[6] = hAMYR3 Potency, no HSA, EC50, method A, absence of HSA

Substance | EC50 [1, 4] | EC50 [1, 5] | Purity loss per week at 37° C. [3] | Food intake (relative to vehicle) Day 1 ([2]; single dose 10 nmol/kg) | Food intake (relative to vehicle) Day 2 ([2]; single dose 10 nmol/kg) | Food intake (relative to vehicle) Day 3 ([2]; single dose 10 nmol/kg) | EC50 [1, 6] | Food intake (relative to vehicle) Day 1 ([2]; single dose 30 nmol/kg) | Food intake (relative to vehicle) Day 2 ([2]; single dose 30 nmol/kg) | Food intake (relative to vehicle) Day 3 ([2]; single dose 30 nmol/kg)
H[Aib]HGTFTSDYSILLEEQAAREFIEWLLAGGPSK([AEEA-AEEA-γGlu-C18 diacid])GAPPPSGGGEASELSTAALGRLSAELHELATLPRTETGSGSP-NH2 [Compound 15] | 82.2 pM | 5.01 pM | 3.8% | −30% | −42% | −9% | – | – | – | –
H[Aib]HGTFTSDYSILLEEQAAREFIEWLLAGGPSK([AEEA-AEEA-γGlu-C16 diacid])GAPPPSGGGEASELSTAALGRLSAELHELATLPRTETGSGSP-NH2 [Compound 12] | 55 pM | 6.23 pM | 5.6% | −70% | −39% | −8% | – | – | – | –
H[Aib]HGTFTSDYSILLEEQAAREFIEWLLAGGPSK([AEEA-AEEA-γGlu-C16 diacid])GEASELSTAALGRLSAELHRLATLPRTETGSGSP-NH2 [Compound 17] | 33.6 pM | 5.13 pM | 4.2% | −84% | −78% | −11% | – | – | – | –
H[Aib]HGTFTSDYSILLEEQAAREFIEWLLAGGPSK([AEEA-AEEA-γGlu-C16 diacid])GEASQLSTAALGRLSAELHRLADLPRTETGSGSP-NH2 [Compound 62] | 28.8 pM | – | 3.0% | −74% | −42% | −13% | 3.35 pM | – | – | –
Y[Aib]EGTFTSDYSILLEEQAAREFIEWLLAGGPSK([AEEA-AEEA-γGlu-C18 diacid])GEASHLSTAQTARLSAELHELATLPRTETGSGSP-NH2 [Compound 35] | – | 4.21 pM | 0.3% | – | – | – | – | −42% | −18% | −16%
Y[Aib]EGTFTSDYSILLEEQAAREFIEWLLAGGPSSGEASHLSTAQTQRLSAELHK([AEEA-AEEA-γGlu-C18 diacid])LATLPRTETGSGSP-NH2 [Compound 50] | 185 pM | 3.2 pM | 0.7% | −54% | −60% | −21% | – | – | – | –
Y[Aib]EGTFTSDYSILLEEQAAREFIEWLLAGGPSSGEASHLSTAQTQRLSAELHRLK([AEEA-AEEA-γGlu-C18 diacid])TLPRTETGSGSP-NH2 [Compound 80] | 62.4 pM | 3.23 pM | 0.8% | −84% | −78% | −23% | – | – | – | –
H[Aib]HGTFTSDYSILLEEQAAREFIEWLLAGGPSK([AEEA-AEEA-γGlu-C16 diacid])GAPPPSGGGEASHLSTAQTARLSAELHRLADLPRTETGSGSP-NH2 [Compound 61] | 30.8 pM | – | 2.0% | −86% | −92% | −34% | 2.97 pM | – | – | –

Second part, led by results:

EC50 [1, 4] | EC50 [1, 5] | Purity loss per week at 37° C. [3] | Substance | Food intake (relative to vehicle) Day 1 ([2]; single dose 10 nmol/kg) | Food intake (relative to vehicle) Day 2 ([2]; single dose 10 nmol/kg) | Food intake (relative to vehicle) Day 3 ([2]; single dose 10 nmol/kg) | EC50 [1, 6] | Food intake (relative to vehicle) Day 1 ([2]; single dose 30 nmol/kg) | Food intake (relative to vehicle) Day 2 ([2]; single dose 30 nmol/kg) | Food intake (relative to vehicle) Day 3 ([2]; single dose 30 nmol/kg)
28.8 pM | 2.26 pM | 2.8% | H[Aib]HGTFTSDYSILLEEQAAREFIEWLLAGGPSSGAGQAPGQAPGASHLSTAQTQRLSAELHRLK([AEEA-AEEA-γGlu-C18 diacid])TLPRTETGSGSP-NH2 [Compound 91] | −96% | −84% | −33% | – | – | – | –
85 pM | 3 pM | 0.2% | Y[Aib]EGTFTSDYSILLEEQAAREFIEWLLAGGPSSGAGQAPGQAPGASHLSTAQTQRLSAELHRLATLPK([AEEA-AEEA-γGlu-C18 diacid])TETGSGSP-NH2 [Compound 57] | −75% | −88% | −14% | – | – | – | –
70.2 pM | 2.86 pM | 3.7% | H[Aib]HGTFTSDYSILLEEQAAREFIEWLLAGGPSK([AEEA-AEEA-γGlu-C18 diacid])GEASQLSTAALGRLSAELHTLATLPRTETGSGSP-NH2 [Compound 63] | −79% | −80% | −17% | – | – | – | –
44.9 pM | 2.36 pM | 0.6% | Y[Aib]EGTFTSDYSILLEEQAAREFIEWLLAGGPSSGAGQAPGQAPGASHLSTAQTQRLSAELHRLK([AEEA-AEEA-γGlu-C18 diacid])TLPRTETGSGSP-NH2 [Compound 56] | −69% | −77% | −10% | – | – | – | –
17.1 pM | 1.83 pM | 3.5% | H[Aib]HGTFTSDYSILLEEQAAREFIEWLLAGGPSSGAGQAPGQAPGASHLSTAQTQRLSAK([AEEA-AEEA-γGlu-C18 diacid])LHRLATLPRTETGSGSP-NH2 [Compound 78] | −96% | −57% | −3% | – | – | – | –
66.4 pM | 2.23 pM | 2.8% | H[Aib]HGTFTSDYSILLEEQAAREFIEWLLAGGPSSGAGQAPGQAPLASHLSTAQTQRLSAELHK([AEEA-AEEA-γGlu-C18 diacid])LATLPRTETGSGSP-NH2 [Compound 93] | −94% | −61% | −25% | – | – | – | –
